Laboratory results from patent US20160022810A1, “Method for Treating Cancers by Alternating Immunotherapeutics and Directly Oncolytic Therapeutics” (priority 2014, published 2016).

Key:
4T1 breast cancer cells [1] = assay: visible lung metastases, CATS versus paclitaxel (FIG. 7); type: in vivo, BALB/c mice; settings: two boluses separated by 2 days; 100 micrograms
From the text: This reflects into a much stronger anti-metastatic activity (FIG. 7) of CATS™ over paclitaxel, that translates to survival benefits. In this study, 40 BALB/c mice were orthotopically implanted in the mammary pad on Day 0 with 1×10^4 4T1 breast cancer cells. When tumor volume approximated 200 mm^3 (on Day 17), mice were randomly distributed into four cohorts of ten mice each. […] Mice were sacrificed when tumor diameter reached 14 mm (Day 30), at which time mice were euthanized, lungs removed, and visible lung metastases were quantitated by a second observer blinded to the treatment protocols. Floating bars depict maximum and minimum number of metastases each cohort, horizontal line indicates mean±SE.

4T1 cells = assay: survival with CATS alternating with cyclophosphamide (FIG. 10); type: in vivo, mice; settings: cyclophosphamide alone 80 mg/kg ip, two boluses over 48 hours from Day 20, then weekly
Procedure: This Kaplan-Meier graph plots survival of three groups of mice (10/cohort) implanted with 1×10^4 4T1 cells on Day 0 and initiated to treatment on Day 20 with two bolus doses over the first 48 hours, and thereafter once weekly of either placebo (blue, 50 ng IV), cyclophosphamide (Cy, orange, 80 mg/kg ip) or alternating therapy (CATS/Cy, green, 50 ng IV CATS™ boluses or every other week, alternating every other week with Cy 80 mg/kg). In this trial 100% of mice treated with CATS™ alternating therapy survived 75 days, at which time the trial was terminated.

4T1 breast cancer cells [2] = assay: survival with single regimen, cyclophosphamide or CATS (FIG. 8); type: in vivo; settings: 80 mg/kg ip weekly from Day 16; no mice survived beyond; control 37 days
Procedure: Thirty mice were orthotopically implanted with 5×10^4 4T1 breast cancer cells in their mammary fat pad on Day 0. On Day 16, mice were randomized into three cohorts of ten mice each to receive weekly doses of either carrier control (Brown line, Placebo, 25 ng iv), cyclophosphamide cytotoxic drug (CD) chemotherapy (Green line, CD, 80 mg/kg ip) or CATS™ immunotherapy (Purple line, 25 ng iv). Kaplan-Meier curves analyzing surviving mice in each cohort show no mice survived beyond 37 days in the control group, or 46 days in the CD group, while 4 of 10 mice were alive at day 62 in the CATS™ treatment group.

SMILES | tolerability of consolidation dosing (4T1 breast cancer cells [1]) | survival at Day 40 (4T1 cells) | longest survival (4T1 breast cancer cells [2]) [days]
CC(=O)O[C@H]1C(=O)[C@@]2(C)[C@H]([C@H](OC(=O)c3ccccc3)[C@]3(O)C[C@H](OC(=O)[C@H](O)[C@@H](NC(=O)c4ccccc4)c4ccccc4)C(C)=C1C3(C)C)[C@]1(OC(C)=O)CO[C@@H]1C[C@@H]2O [Taxol, paclitaxel] | toxic | – | –
O=P1(N(CCCl)CCCl)NCCCO1 (stereo not drawn) [cyclophosphamide] | – | all of the mice receiving cyclophosphamide alone were dead | ≤ 46
